According to patent publication US6281354A, “Analogs of duocarmycin and cc-1065” (The Scripps Research Institute, priority 1999, dated 2001):

Legend:
w794 DNA [1] = assay: DNA alkylation (thermal strand cleavage, PAGE) within w794 DNA; format: biochemical, SV40
[2] = Calculated rate constant for acid-catalyzed solvolysis; format: physicochemical
[3] = tested on: duplex DNA (w794, w836, c988, c820, c1346); format: biochemical, SV40
DNA = settings: cited from earlier work
w794 DNA [4] = assay: Rate of DNA alkylation at the single w794 high affinity site: pH and buffer dependence; format: biochemical, SV40; settings: for change in rate of DNA alkylation over 2 pH units: 10 mM phosphate buffer, pH 6.0-8.1; for slope of plot of pH versus log κobs: pH 6-7; for pH dependence of the rate of DNA alkylation: pH 7-8
Procedure: Rate of DNA Alkylation: pH Dependence. […] Because this was conducted using w794 DNA additionally containing >7000 base-pairs and multiple binding sites within the unlabeled portion of the DNA, the comparisons were conducted at concentrations that provide saturated binding and restrict the kinetic analysis to the pseudo-first order rate constant for alkylation. […] The relative lack of dependence on the acid concentration (pH) especially in the most relevant pH range of 7-8 in conjunction with the observations made in the accompanying paper has led us to propose an alternative source of reaction catalysis.
Relative Rates of DNA Alkylation for (+)-1 at pH 6-8. Eppendorf tubes containing 5' end-labeled w794 DNA (9 μL) in phosphate buffer (10 mM) at pH 6.0, 6.6, 7.1, 7.6, and 8.1 were prepared. The solutions at each pH were treated with (+)-duocarmycin SA (1μL, 10^-6 M in DMSO), mixed and incubated at 25° C. for 0.5, 1.0, 1.5, 2.0 and 3.0 h. […] The reactions were stopped at each time interval by EtOH precipitation of the DNA. The alkylated DNA was resuspended in TE buffer (10 μL, pH 7.5) and heated at 100° C. for 30 min follwed by PAGE and autoradiography as detailed above.
Since these observations sharply contrast the proposed important role of acid catalysis for activation of the agents toward DNA alkylation which has served as the basis for one prominent proposal for the origin of the DNA alkylation selectivity, we have examined in detail the pH dependence of the rate of DNA alkylation for duocarmycin SA (1) and CCBI-TMI over a physiologically relevant range. […] Between pH 6-7, the slope of the plot of pH versus log κobs was 0.2-0.3, far lower than that of 1.0 required of a first-order dependence on acid concentration.

[5] = Chemical/aqueous solvolysis reactivity followed by UV; format: physicochemical
Text: The solvolysis reactivities of N--BOC-CNA (78) and CNA (79) were followed spectrophotometrically by UV at both pH 3 (50% CH3 OH-buffer, buffer=4:1:20 v/v/v 0.1 M citric acid, 0.2 M Na2 HPO4, H2 O) and pH 7 (50% CH3 OH--H2 O). […] Particularly informative are comparisons of the benzo series of agents that differ only in the C-ring size (i.e., 76-79). Solvolysis reactivity smoothly increases through the series CBI<CBQ<CNA with both the N--BOC derivatives and the free NH derivatives.
Aqueous Solvolysis of N--BOC-CNA (78) and CNA (79). Samples of 78 (150 μg) and 79 (150 [g) were dissolved in CH3 OH (1.5 mL) and the resulting solutions were mixed with aqueous buffer (pH 3, 1.5 mL, 4:1:20 (v:v:v) 0.1 M citric acid, 0.2 M Na2 HPO4, and deionized H2 O respectively). Similarly, a solution of 78 (150 μg) in CH3 OH (1.5 mL) was mixed with deionized H2 O (pH 7, 1.5 mL). The UV spectra of the solutions were measured immediately after mixing with the appropriate aqueous solution. The blank and the solvolysis reaction solutions were stoppered, protected from light, and allowed to stand at 25° C. The total reaction times reflect those required to observe no further change in absorbance. For the solvolysis of 78 at pH 3, the UV spectrum was taken every 30 s for 10 min and then every 3 min for the next 40 min. The decrease of the absorbance at 319 nm was monitored. […] For the solvolysis of 78 at pH 7, the UV spectrum was monitored every 5 min for 19 h. […] For the solvolysis of 79 at pH 3, the UV spectrum was monitored every 2 min for the first 110 min and then every 10 min for the next 4 h. The decrease in the absorbance at 345 nm was recorded.

w794 DNA [6] = settings: pH 7.5, earlier studies; cited from earlier work
w794 DNA [7] = assay: Relative rates of DNA alkylation for (+)-1, 53 and 54 at the w794 5'-AATTA site; format: biochemical, SV40
Procedure: Modifications in the Trimethoxyindole Subunit: Role of the Methoxy Substituents. DNA alkylation by the natural enantiomers of 53-56 were compared with that of 1 in w794 DNA.
Relative Rates of DNA Alkylation for (+)-1, 53, and 54. Following the procedure detailed above, Eppendorf tubes containing 5' end-labeled w794 DNA (9 μL) in TE buffer (pH 7.5) were treated with (+)-duocarmnycin SA, 53, or 54 (1 μL, 10^-5 M in DMSO). […] The solutions were mixed and incubated at 25° C. for 1, 3, 6, 12, 24, 48, and 72 h, respectively. Subsequent isolation of the alkylated DNA by EtOH precipitation, resuspension in TE buffer (10 μL, pH 7.5), thermolysis (30 min, 100° C.), concurrent PAGE, and autoradiography were conducted as detailed above. The relative rate for the alkylation at the 5'-AATTA site was derived from the slopes of the plots of percent integrated optical density (IOD) of the high affinity alkylation site cleavage bands versus time.

w836 DNA = assay: DNA alkylation sites and relative rates within the six-base A sequence (5'-AAAAAA) of w836 DNA; format: biochemical, SV40; settings: 5'-AAAAAA
[8] = In vitro cytotoxic activity
[9] = 10^-6 M, 25° C., pH 7.6, 10 mM phosphate
[10] = 10^-5 M, 25° C., 1-72 h, 5'-d(AATTA)

With `COc1c(O)c2c(c3cc(C(=O)N4CCc5c4c(O)c(OC)c4[nH]c(C(=O)N6C[C@H]7C[C@@]78C6=CC(=O)c6[nH]cc(C)c68)cc54)[nH]c13)CCN2C(N)=O` [(+)-CC-1065, reference compound] as the compound, how does the “high affinity alkylation site in w794 DNA” value (w794 DNA [1]) read?
Its value is 5'-AATTA.

And the “calculated first-order rate constant for acid-catalyzed solvolysis, pH 7.6” value [2]?
Its value is 2.5×10^-11 s^-1.

What about the “AT-rich adenine N3 alkylation selectivity (size of site)” value [3] of the same compound?
The value was 5 base-pair.

And the “adenine N3 adduct formation (addition to least substituted cyclopropane carbon)” value (DNA)?
Its value is > 85%.

What about the “pseudo first-order rate constant for DNA alkylation, pH 7.6 (unit not given)” value (w794 DNA [4]; [9]) of the same compound?
The value was 3.36×10^-4.

What about the “solvolysis reactivity/stability in words or rank order” value [5] of the same compound?
The value was “remarkable stability of 1-3 even at pH 5”.

Which results are given for `COc1cc2cc(C(=O)N3C[C@H]4C[C@@]45C3=CC(=O)c3ccc(C#N)cc35)[nH]c2c(OC)c1OC` [CCBI-TMI]?
relative rate of DNA alkylation at w794 high affinity site (w794 DNA [6]): 2.5 ×; change in rate of DNA alkylation over 2 pH units (w794 DNA [4]; 10^-6 M, 25° C.): < 3 ×; effect of EDTA on the rate of DNA alkylation (w794 DNA [4]; Tris or phosphate buffer): had or no effect; slope of plot of pH versus log κobs (w794 DNA [4]): 0.2-0.3; pH dependence of the rate of DNA alkylation (w794 DNA [4]): the rate dependence on pH essentially disappeared; faster alkylation of w794 high affinity site than (+)-1 (w794 DNA [4]; throughout the pH range): 1.9-2.5 ×

For `COC(=O)C1(C)NC2=C(C1=O)[C@@]13C[C@@H]1CN(C(=O)c1cc4cc(OC)c(OC)c(OC)c4[nH]1)C3=CC2=O` (stereo partly drawn) [duocarmycin A], which “adenine N3 adduct formation (addition to least substituted cyclopropane carbon)” value (DNA) is on record?
Its value is 86-92%.

And the “solvolysis reactivity/stability in words or rank order” value [5]?
The value was “remarkable stability of 1-3 even at pH 5”.

Which results are given for `COC(=O)c1cc2c([nH]1)C(=O)C=C1N(C(=O)c3cc4cc(OC)c(OC)c(OC)c4[nH]3)CC3CC123` (stereo not drawn) [duocarmycin SA]?
concentration dependence of the rate of DNA alkylation (w794 DNA [7]; 10^-4 -10^-6 M): independent of agent concentration; relative rate of DNA alkylation κrel versus 53 (w794 DNA [7]; [10]): 18-33; relative rate of DNA alkylation κrel, 1 versus 54 (w794 DNA [7]; [10]): 1.3-2.3; relative rate of DNA alkylation at w794 high affinity site (w794 DNA [6]): 0.9 ×; calculated rate constant for acid-catalyzed solvolysis, pH 7 ([2]; pH 7): 1.08×10^-10 s^-1; calculated first-order rate constant for acid-catalyzed solvolysis, pH 7.6 [2]: 2.7×10^-11 s^-1; AT-rich adenine N3 alkylation selectivity (size of site) [3]: 3.5 base-pair; AT-rich binding site covered in w836 DNA (w836 DNA): 3.5 base-pair; alkylated adenines within six-base A-rich sequence of w836 DNA (w836 DNA): each of the four 3' adenines; adenine N3 adduct formation (addition to least substituted cyclopropane carbon) (DNA): 95-100%; concentration dependence of the rate of DNA alkylation (pH study) (w794 DNA [4]; 10^-4 -10^-6 M): independent of agent concentration; change in rate of DNA alkylation over 2 pH units (w794 DNA [4]; 10^-6 M, 25° C.): < 2 ×; change in rate of DNA alkylation over 2 pH units (w794 DNA [4]; 10^-6 M, 25° C., listed as (+)-duocarmycin SA (1)): < 3 ×; pseudo-first order rate constant for DNA alkylation, pH 7.1 (w794 DNA [4]; 10^-6 M, 25° C., pH 7.1, 5'-AATTA): 1.69×10^-4 s^-1; pseudo first-order rate constant for DNA alkylation, pH 7.6 (w794 DNA [4]; [9]): 1.58×10^-4 s^-1; slope of plot of pH versus log κobs (w794 DNA [4]): 0.2-0.3; pH dependence of the rate of DNA alkylation (w794 DNA [4]): essentially no dependence; pH dependence of the rate of DNA alkylation (w794 DNA [4]; listed as (+)-duocarmycin SA): the rate dependence on pH essentially disappeared; pH dependence of the rate of DNA alkylation (w794 DNA [4]; listed as (+)-duocarmycin SA (1)): the rate dependence on pH essentially disappeared; t1/2 of DNA alkylation (w794 DNA [4]; pH 7 / 7.1): 1.1 h; t1/2 of DNA alkylation, pH 7.6 (w794 DNA [4]; pH 7.6): 1.2 h; cytotoxic / antitumor activity in words [8]: biologically the most potent
